{"source": "patent US4939175A", "about": "“Use of N,N-dimethyl-1-[1-(4-chlorophenyl)cyclobutyl]-3-methylbutylamine” (priority 1988, dated 1990)", "key": {"[1]": {"system": "sleeping time induced by thiopental", "test": "Sleeping time induced by thiopental", "format": "in vivo, Std: Wistar male rats", "settings": "thiopental 40 mg/kg i.v., control 500.8 ± 12.0, **p < 0.01", "description": "Effect of the test samples on the sleeping time induced by thiopental\nThe test sample was administered orally to Std: Wistar male rats, and at 60 minutes later, sodium thiopental (40 mg/kg) was injected intravenously.\nThe duration of sleeping time was determined as the time period between the injection of thiopental and return of the righting reflex.\nDistilled water was used as control sample."}, "[2]": {"system": "depletion of serotonin induced by p-chloroamphetamine", "test": "Depletion of serotonin (5-HT) induced by p-chloroamphetamine (whole brain)", "format": "in vivo, SlC:ddy mice", "settings": "p-chloroamphetamine 10 mg/kg i.p., control 48 ± 6, **p < 0.01", "description": "Effect of the test samples on the depletion of serotonin (hereinafter referred to as \"5-HT\") induced by p-chloroamphetamine\nThe test sample was administered orally to SlC:ddy made mice and after 60 minutes, p-chloroamphetamine (10 mg/kg) was injected intraperitoneally.\nAt 6 hours later, the mice were decapitated. The whole brain was rapidly removed and homogenized in 0.06M perchloric acid with N-methylserotonin (10 μg/ml) as an internal standard. The homogenate was centrifuged and then the amount of 5-HT in the supernatant was determined by high performance liquid chromatography with electrochemical detection.\nAmitriptyline was used as the reference drug and distilled water was used as control sample."}, "[3]": {"system": "memory defect artificially induced by electroconvulsive shock in mice", "test": "Memory defect artificially induced by electroconvulsive shock in mice (step-through test)", "format": "in vivo, C 57 BL/6 male mice", "settings": "ECS +; for Number of mice showing latency longer than 300 seconds: 1 hour before testing trial, 10 mice; for Amnestic syndrome rate: control ECS + 80, ECS - 40", "description": "[…]. The test was carried out by using a box divided into two rooms (light and dark). The dark room (23.5 cm in height, 12 cm in width and 24 cm in length) was surrounded by black inner walls and provided with a stainless steel bar on the floor to give the mouse an electric shock. The light room (triangular in shape with 15 cm in height, 13 cm in bottom side length and 12 cm in oblique-side length) was surrounded by transparent walls except for the partition wall, provided with a guillotine door (5 cm in height and 3 cm in width) at the center of the partition wall, and illuminated with a 100 Watt electric bulb at a position of 50 cm above the floor.\nThe test was carried out according to the procedures as follows:\nAfter the mouse was put in the light room, the guillotine door was opened. When the limbs of the mouse entered into the dark room, the door was closed. After keeping the mouse for 10 seconds in the dark room, it was brought back to the home cage.\nThe mouse was put in the light room at the time of 30 minutes after the taming trial, and then the guillotine door was opened. When the limbs of the mouse entered into the dark room, the door was closed and 0.4 mA of electric shock was applied to the limbs of the mouse for 3 seconds. Then, the mouse was brought back to the home cage.\nThe mouse was put in the light room at the time of 24 hours after the acquisition trial, and then the guillotine door was opened.\nElectroconvulsive shock (30 mA, 0.5 second) was applied to the mouse at its ears immediately after the acquisition trial, which caused tetany on the mouse. The mice, which survived after the righting reflex had disappeared,were subjected to the testing trial 24 hours later.\nThe test compound was dissolved in distilled water, and the solution was orally administered, in a dose shown in Table 1 to each group consisting of 10 heads at the time of one hour before the testing trial.\nThe testing trial (3) was conducted at one hour after the test compound administration, and the reaction latency was examined for each test mouse. The obtained results are shown in Table 1, and Amnestic syndrome rate (%) is expressed as follows: [formula]"}, "[4]": {"test": "Acute toxicity, oral, mice", "parameters": "species or system SlC:ddy male mice", "settings": "mouse, in vivo, read-out: Number of dead mice per 10 mice", "description": "SlC:ddy male mice (10 heads/group) were used.\nAfter the oral administration of the test smaple, desipramine was used as the test drug, to the mice, the number of the dead mice was counted at 0.5, 1, 2, 4, 18 and 24 hours respectively after the oral administration."}, "[5]": {"system": "depletion of dopamine induced by MPTP in mice whole brain", "test": "animal or person", "format": "in vivo, SlC: ddy strain male mice", "settings": "Mus musculus, po, 168 h, MPTP 50 mg/kg s.c., read-out: Percentage of the amount of dopamine in the treated group against the amount of dopamine in the non-treated group; for response vs control in vivo at 10 mg/kg: 10 mg/kg oral"}, "[6]": {"system": "depletion of norepinephrine induced by 6-hydroxydopamine in rat heart", "test": "Depletion of norepinephrine induced by 6-hydroxydopamine in rat heart", "format": "in vivo, Std: Wistar male rats", "settings": "6-hydroxydopamine 20 mg/kg i.p., control 20 ± 4, non-treatment 425 ± 49, **p < 0.01", "description": "Effect of the test samples on the depletion of norepinephrine induced by 6-hydroxydopamine in rat heart.\nThe test sample was administered orally to Std: Wistar male rats and after 30 minutes, 6-hydroxydopamine (20 mg/kg) was injected intraperitoneally.\nAt 16 hours after injection of 6-hydroxydopamine, the rats were killed. The whole heart was rapidly removed and homogenized in 0.05M perchloric acid with isoproterenol (10 mg/ml) as an internal standard. The homogenate was centrifuged and then the amount of norepinephrine in the supernatant was determined by means of high performance liquid chromatography with electrochemical detection.\nDesipramine was used as the reference drug and distilled water was used as control sample."}}, "note": "Read-outs that look alike come from different tables or passages of the source."}
{"smiles": "CC(C)CC(N(C)C)C1(c2ccc(Cl)cc2)CCC1.Cl", "note": "(stereo not drawn) [Test compound, N,N-dimethyl-1-[1-(4-chlorophenyl)cyclobutyl]3-methylbutylamine hydrochloride]", "values": [{"measurement": "Sleeping time", "setting": "[1]; 10 mg/kg oral", "value": "345.6 ± 82.2", "unit": "s"}, {"measurement": "Sleeping time", "setting": "[1]; 30 mg/kg oral", "value": "338.5 ± 43.7", "unit": "s"}, {"measurement": "Percentages of the amount of 5-HT in the treated group against the amount of 5-HT in the non-treated group", "setting": "[2]; 3 mg/kg oral", "value": "64 ± 8", "unit": "%"}, {"measurement": "Percentages of the amount of 5-HT in the treated group against the amount of 5-HT in the non-treated group", "setting": "[2]; 10 mg/kg oral", "value": "103 ± 10", "unit": "%"}, {"measurement": "Number of mice showing latency longer than 300 seconds", "setting": "[3]; 0.3 mg/kg oral", "value": 4}, {"measurement": "Amnestic syndrome rate", "setting": "[3]; 0.3 mg/kg oral", "value": 60, "unit": "%"}, {"measurement": "Number of mice showing latency longer than 300 seconds", "setting": "[3]; 1.0 mg/kg oral", "value": 3}, {"measurement": "Amnestic syndrome rate", "setting": "[3]; 1.0 mg/kg oral", "value": 70, "unit": "%"}, {"measurement": "Number of mice showing latency longer than 300 seconds", "setting": "[3]; 3.0 mg/kg oral", "value": 7}, {"measurement": "Amnestic syndrome rate", "setting": "[3]; 3.0 mg/kg oral", "value": 30, "unit": "%"}, {"measurement": "Number of mice showing latency longer than 300 seconds", "setting": "[3]; 10.0 mg/kg oral", "value": 9}, {"measurement": "Amnestic syndrome rate", "setting": "[3]; 10.0 mg/kg oral", "value": 10, "unit": "%"}, {"measurement": "mortality at 0.5 h", "setting": "[4]; 200 mg/kg oral", "value": 0, "unit": "%"}, {"measurement": "mortality at 1 h", "setting": "[4]; 200 mg/kg oral", "value": 10, "unit": "%"}, {"measurement": "mortality at 2 h", "setting": "[4]; 200 mg/kg oral", "value": 10, "unit": "%"}, {"measurement": "mortality at 4 h", "setting": "[4]; 200 mg/kg oral", "value": 10, "unit": "%"}, {"measurement": "mortality at 18 h", "setting": "[4]; 200 mg/kg oral", "value": 20, "unit": "%"}, {"measurement": "mortality at 24 h", "setting": "[4]; 200 mg/kg oral", "value": 20, "unit": "%"}, {"measurement": "mortality at 0.5 h", "setting": "[4]; 800 mg/kg oral", "value": 40, "unit": "%"}, {"measurement": "mortality at 1 h", "setting": "[4]; 800 mg/kg oral", "value": 50, "unit": "%"}, {"measurement": "mortality at 2 h", "setting": "[4]; 800 mg/kg oral", "value": 50, "unit": "%"}, {"measurement": "mortality at 4 h", "setting": "[4]; 800 mg/kg oral", "value": 60, "unit": "%"}, {"measurement": "mortality at 18 h", "setting": "[4]; 800 mg/kg oral", "value": 90, "unit": "%"}, {"measurement": "mortality at 24 h", "setting": "[4]; 800 mg/kg oral", "value": 90, "unit": "%"}, {"measurement": "response vs control in vivo at 10 mg/kg", "setting": "[5]; Experiment I, control 71 ± 11, *P < 0.05, **P < 0.01", "value": "83 ± 12", "unit": "%"}, {"measurement": "response vs control in vivo at 30 mg/kg", "setting": "[5]; Experiment I, 30 mg/kg oral, control 71 ± 11, *P < 0.05, **P < 0.01", "value": "85 ± 6", "unit": "%"}, {"measurement": "response vs control in vivo at 10 mg/kg", "setting": "[5]; Experiment II, control 88 ± 20, *P < 0.05", "value": "111 ± 8", "unit": "%"}, {"measurement": "Amount of Norepinephrine", "setting": "[6]; 0.625 mg/kg oral", "value": "169 ± 34", "unit": "ng/g"}, {"measurement": "Amount of Norepinephrine", "setting": "[6]; 1.25 mg/kg oral", "value": "247 ± 49", "unit": "ng/g"}, {"measurement": "Amount of Norepinephrine", "setting": "[6]; 2.5 mg/kg oral", "value": "306 ± 27", "unit": "ng/g"}]}
